Test results taken from PubChem BioAssay AID2060620 (Molecular Pharmacology Branch, DTP, NCI, 2025).

System: 328373-195-R-J1-PDC complex spheroids, viability % test/control
Assay: Anticancer human tumor 328373-195-R-J1-PDC patient-derived head and neck squamous carcinoma cell line growth inhibition [CLK]
Conditions: for IC50: curve of first compound; for viability, T/C: stronger effect = lower value
Method in brief: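 Patient-derived tumor cells grown as complex spheroids with HUVEC endothelial cells and mesenchymal stem cells, treated with drug combinations. Concentrations descend in half-log steps from near clinical Cmax, or from 10 microM if Cmax unknown.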

[1] = second compound 0.0316 µM, first compound 0.0316 µM
[2] = second compound 0.0316 µM, first compound 0.1 µM
[3] = second compound 0.1 µM, first compound 0.0316 µM
[4] = second compound 0.1 µM, first compound 0.1 µM
[5] = second compound 0.316 µM, first compound 0.0316 µM
[6] = second compound 0.316 µM, first compound 0.1 µM
[7] = second compound 1 µM, first compound 0.0316 µM
[8] = second compound 1 µM, first compound 0.1 µM
[9] = second compound 3.16 µM, first compound 0.0316 µM
[10] = second compound 3.16 µM, first compound 0.1 µM
[11] = second compound 10 µM, first compound 0.0316 µM
[12] = second compound 10 µM, first compound 0.1 µM
[13] = second compound 0.0316 µM, first compound 0.316 µM
[14] = second compound 0.0316 µM, first compound 1 µM
[15] = second compound 0.0316 µM, first compound 3.16 µM
[16] = second compound 0.0316 µM, first compound 10 µM
[17] = second compound 0.1 µM, first compound 0.316 µM
[18] = second compound 0.1 µM, first compound 1 µM
[19] = second compound 0.1 µM, first compound 3.16 µM
[20] = second compound 0.1 µM, first compound 10 µM
[21] = second compound 0.316 µM, first compound 0.316 µM
[22] = second compound 0.316 µM, first compound 1 µM
[23] = second compound 0.316 µM, first compound 3.16 µM
[24] = second compound 0.316 µM, first compound 10 µM
[25] = second compound 1 µM, first compound 0.316 µM
[26] = second compound 1 µM, first compound 1 µM
[27] = second compound 1 µM, first compound 3.16 µM
[28] = second compound 1 µM, first compound 10 µM
[29] = second compound 3.16 µM, first compound 0.316 µM
[30] = second compound 3.16 µM, first compound 1 µM
[31] = second compound 3.16 µM, first compound 3.16 µM
[32] = second compound 3.16 µM, first compound 10 µM
[33] = second compound 10 µM, first compound 0.316 µM
[34] = second compound 10 µM, first compound 1 µM
[35] = second compound 10 µM, first compound 3.16 µM
[36] = second compound 10 µM, first compound 10 µM
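Also: spheroids exposed to the agents for 7 days.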

CC(C)CC(NC(=O)C(Cc1ccccc1)NC(=O)c1cnccn1)B(O)O (stereo not drawn) + CN1CCN(c2cc(C(=O)Nc3cc4cc(-c5cnn(C)c5)ccc4cn3)ccn2)CC1
IC50 (second compound 0.0316 µM): 1.76 nM
IC50 (second compound 0.1 µM): 1.5 nM
IC50 (second compound 0.316 µM): < 0.949 nM
IC50 (second compound 1 µM): < 0.949 nM
IC50 (second compound 3.16 µM): < 0.949 nM
IC50 (second compound 10 µM): < 0.949 nM
viability, T/C (second compound 0.0316 µM, first compound 0.000949 µM): 98.5%
viability, T/C (second compound 0.0316 µM, first compound 0.003 µM): 8.37%
viability, T/C (second compound 0.0316 µM, first compound 0.00949 µM): 1.89%
viability, T/C (second compound 0.0316 µM, first compound 0.03 µM): 0.2%
viability, T/C (second compound 0.0316 µM, first compound 0.0949 µM): 0.17%
viability, T/C (second compound 0.0316 µM, first compound 0.3 µM): 2.7%
viability, T/C (second compound 0.1 µM, first compound 0.000949 µM): 78.4%
viability, T/C (second compound 0.1 µM, first compound 0.003 µM): 6.61%
viability, T/C (second compound 0.1 µM, first compound 0.00949 µM): 2.17%
viability, T/C (second compound 0.1 µM, first compound 0.03 µM): 0.2%
viability, T/C (second compound 0.1 µM, first compound 0.0949 µM): 1.87%
viability, T/C (second compound 0.1 µM, first compound 0.3 µM): 2.34%
viability, T/C (second compound 0.316 µM, first compound 0.000949 µM): 26.6%
viability, T/C (second compound 0.316 µM, first compound 0.003 µM): 1.25%
viability, T/C (second compound 0.316 µM, first compound 0.00949 µM): 0.78%
viability, T/C (second compound 0.316 µM, first compound 0.03 µM): 0.49%
viability, T/C (second compound 0.316 µM, first compound 0.0949 µM): 1.14%
viability, T/C (second compound 0.316 µM, first compound 0.3 µM): 4.1%
viability, T/C (second compound 1 µM, first compound 0.000949 µM): 0.13%
viability, T/C (second compound 1 µM, first compound 0.003 µM): 3.65%
viability, T/C (second compound 1 µM, first compound 0.00949 µM): 0.97%
viability, T/C (second compound 1 µM, first compound 0.03 µM): 0.1%
viability, T/C (second compound 1 µM, first compound 0.0949 µM): 0.09%
viability, T/C (second compound 1 µM, first compound 0.3 µM): 2.54%
viability, T/C (second compound 3.16 µM, first compound 0.000949 µM): 0.08%
viability, T/C (second compound 3.16 µM, first compound 0.003 µM): 4.42%
viability, T/C (second compound 3.16 µM, first compound 0.00949 µM): 1.48%
viability, T/C (second compound 3.16 µM, first compound 0.03 µM): 0.07%
viability, T/C (second compound 3.16 µM, first compound 0.0949 µM): 1.48%
viability, T/C (second compound 3.16 µM, first compound 0.3 µM): 1.92%
viability, T/C (second compound 10 µM, first compound 0.000949 µM): 2.18%
viability, T/C (second compound 10 µM, first compound 0.003 µM): 1.53%
viability, T/C (second compound 10 µM, first compound 0.00949 µM): 3.09%
viability, T/C (second compound 10 µM, first compound 0.03 µM): 0.11%
viability, T/C (second compound 10 µM, first compound 0.0949 µM): 1.22%
viability, T/C (second compound 10 µM, first compound 0.3 µM): 2.07%

Cn1ncnc1[C@H]1c2n[nH]c(=O)c3cc(F)cc(c23)N[C@@H]1c1ccc(F)cc1 + CN1CCN(c2cc(C(=O)Nc3cc4cc(-c5cnn(C)c5)ccc4cn3)ccn2)CC1
IC50 (second compound 0.0316 µM): > 100 nM
IC50 (second compound 0.1 µM): > 100 nM
IC50 (second compound 0.316 µM): < 0.316 nM
IC50 (second compound 1 µM): < 0.316 nM
IC50 (second compound 3.16 µM): < 0.316 nM
IC50 (second compound 10 µM): < 0.316 nM
viability, T/C (second compound 0.0316 µM, first compound 0.000316 µM): 93.5%
viability, T/C (second compound 0.0316 µM, first compound 0.001 µM): 84.3%
viability, T/C (second compound 0.0316 µM, first compound 0.00316 µM): 91.8%
viability, T/C (second compound 0.0316 µM, first compound 0.01 µM): 119%
viability, T/C [1]: 95.1%
viability, T/C [2]: 82.2%
viability, T/C (second compound 0.1 µM, first compound 0.000316 µM): 80.5%
viability, T/C (second compound 0.1 µM, first compound 0.001 µM): 78.7%
viability, T/C (second compound 0.1 µM, first compound 0.00316 µM): 83.9%
viability, T/C (second compound 0.1 µM, first compound 0.01 µM): 86.8%
viability, T/C [3]: 85.8%
viability, T/C [4]: 59.7%
viability, T/C (second compound 0.316 µM, first compound 0.000316 µM): 29.9%
viability, T/C (second compound 0.316 µM, first compound 0.001 µM): 33.9%
viability, T/C (second compound 0.316 µM, first compound 0.00316 µM): 28.4%
viability, T/C (second compound 0.316 µM, first compound 0.01 µM): 27%
viability, T/C [5]: 21.4%
viability, T/C [6]: 18.4%
viability, T/C (second compound 1 µM, first compound 0.000316 µM): 0.11%
viability, T/C (second compound 1 µM, first compound 0.001 µM): 2%
viability, T/C (second compound 1 µM, first compound 0.00316 µM): 2.06%
viability, T/C (second compound 1 µM, first compound 0.01 µM): 0.15%
viability, T/C [7]: 1.32%
viability, T/C [8]: 2.11%
viability, T/C (second compound 3.16 µM, first compound 0.000316 µM): 0.08%
viability, T/C (second compound 3.16 µM, first compound 0.001 µM): 0.77%
viability, T/C (second compound 3.16 µM, first compound 0.00316 µM): 4.18%
viability, T/C (second compound 3.16 µM, first compound 0.01 µM): 0.08%
viability, T/C [9]: 1.73%
viability, T/C [10]: 1.99%
viability, T/C (second compound 10 µM, first compound 0.000316 µM): 0.17%
viability, T/C (second compound 10 µM, first compound 0.001 µM): 0.14%
viability, T/C (second compound 10 µM, first compound 0.00316 µM): 1.47%
viability, T/C (second compound 10 µM, first compound 0.01 µM): 0.12%
viability, T/C [11]: 2.53%
viability, T/C [12]: 1.76%

Nc1ccn(C2OC(CO)C(O)C2(F)F)c(=O)n1 (stereo not drawn) + CN1CCN(c2cc(C(=O)Nc3cc4cc(-c5cnn(C)c5)ccc4cn3)ccn2)CC1
IC50 (second compound 0.0316 µM): < 31.6 nM
IC50 (second compound 0.1 µM): < 31.6 nM
IC50 (second compound 0.316 µM): < 31.6 nM
IC50 (second compound 1 µM): < 31.6 nM
IC50 (second compound 3.16 µM): < 31.6 nM
IC50 (second compound 10 µM): < 31.6 nM
viability, T/C [1]: 3.79%
viability, T/C [2]: 2.43%
viability, T/C [13]: 4.26%
viability, T/C [14]: 2.86%
viability, T/C [15]: 2.91%
viability, T/C [16]: 3.08%
viability, T/C [3]: 4.42%
viability, T/C [4]: 3.79%
viability, T/C [17]: 4.8%
viability, T/C [18]: 3.59%
viability, T/C [19]: 3.13%
viability, T/C [20]: 4.21%
viability, T/C [5]: 4.28%
viability, T/C [6]: 2.41%
viability, T/C [21]: 3.74%
viability, T/C [22]: 1.82%
viability, T/C [23]: 1.62%
viability, T/C [24]: 5.1%
viability, T/C [7]: 0.09%
viability, T/C [8]: 1.02%
viability, T/C [25]: 2.83%
viability, T/C [26]: 0.09%
viability, T/C [27]: 2.43%
viability, T/C [28]: 0.07%
viability, T/C [9]: 1.17%
viability, T/C [10]: 1.23%
viability, T/C [29]: 0.12%
viability, T/C [30]: 1.22%
viability, T/C [31]: 0.16%
viability, T/C [32]: 0.38%
viability, T/C [11]: 2.37%
viability, T/C [12]: 0.17%
viability, T/C [33]: 0.7%
viability, T/C [34]: 0.17%
viability, T/C [35]: 1.04%
viability, T/C [36]: 0.35%

O=C(c1cc(Cc2n[nH]c(=O)c3ccccc23)ccc1F)N1CCN(C(=O)C2CC2)CC1 + CN1CCN(c2cc(C(=O)Nc3cc4cc(-c5cnn(C)c5)ccc4cn3)ccn2)CC1
IC50 (second compound 0.0316 µM): > 10000 nM
IC50 (second compound 0.1 µM): > 10000 nM
IC50 (second compound 0.316 µM): < 31.6 nM
IC50 (second compound 1 µM): < 31.6 nM
IC50 (second compound 3.16 µM): < 31.6 nM
IC50 (second compound 10 µM): < 31.6 nM
viability, T/C [1]: 92.9%
viability, T/C [2]: 91%
viability, T/C [13]: 98.9%
viability, T/C [14]: 92.7%
viability, T/C [15]: 90.4%
viability, T/C [16]: 78.5%
viability, T/C [3]: 76.8%
viability, T/C [4]: 81.4%
viability, T/C [17]: 86.4%
viability, T/C [18]: 83.9%
viability, T/C [19]: 79%
viability, T/C [20]: 57.1%
viability, T/C [5]: 23.5%
viability, T/C [6]: 29.2%
viability, T/C [21]: 23.1%
viability, T/C [22]: 27.4%
viability, T/C [23]: 24.4%
viability, T/C [24]: 17.1%
viability, T/C [7]: 0.23%
viability, T/C [8]: 0.16%
viability, T/C [25]: 1.14%
viability, T/C [26]: 0.33%
viability, T/C [27]: 2.95%
viability, T/C [28]: 2.82%
viability, T/C [9]: 2.14%
viability, T/C [10]: 2.06%
viability, T/C [29]: 2.2%
viability, T/C [30]: 1.77%
viability, T/C [31]: 3.1%
viability, T/C [32]: 1.47%
viability, T/C [11]: 0.09%
viability, T/C [12]: 3.55%
viability, T/C [33]: 1.83%
viability, T/C [34]: 0.13%
viability, T/C [35]: 3.63%
viability, T/C [36]: 0.27%
